Measured values published in patent publication US9067881B2, “4-tolyl-ethynyl-octahydro-indole-1-ester derivatives” (NOVARTIS AG, priority 2011, dated 2015).
Converted amounts (≈) assume the structure as drawn.

How the values were obtained:
[1] = Solubility in Cl free phosphate buffer pH 6.8; assay type: physicochemical; details: aqueous buffer; Cl free phosphate buffer (0.067 M) pH 6.8
[2] = In-vitro clearance in human liver microsomes (metabolic stability, compound depletion)
[3] = In-vitro clearance in rat liver microsomes (metabolic stability, compound depletion)
[4] = microsomes
[5] = microsomes; remark: listed apart in the source
[6] = biological target: T1, human mGluR5 (Homo sapiens, UniProt P41594); test: In-vitro activity of mGluR5 antagonists (inhibition of agonist induced elevation of intracellular Ca2+ or inositol phosphate turnover at recombinant human mGluR5); assay type: cell-based; details: recombinant human mGluR5, antagonism
T1 construct: expressed in transfected cells
T1 sequence (P41594 21-1180 isoform P41594-2 limits assumed): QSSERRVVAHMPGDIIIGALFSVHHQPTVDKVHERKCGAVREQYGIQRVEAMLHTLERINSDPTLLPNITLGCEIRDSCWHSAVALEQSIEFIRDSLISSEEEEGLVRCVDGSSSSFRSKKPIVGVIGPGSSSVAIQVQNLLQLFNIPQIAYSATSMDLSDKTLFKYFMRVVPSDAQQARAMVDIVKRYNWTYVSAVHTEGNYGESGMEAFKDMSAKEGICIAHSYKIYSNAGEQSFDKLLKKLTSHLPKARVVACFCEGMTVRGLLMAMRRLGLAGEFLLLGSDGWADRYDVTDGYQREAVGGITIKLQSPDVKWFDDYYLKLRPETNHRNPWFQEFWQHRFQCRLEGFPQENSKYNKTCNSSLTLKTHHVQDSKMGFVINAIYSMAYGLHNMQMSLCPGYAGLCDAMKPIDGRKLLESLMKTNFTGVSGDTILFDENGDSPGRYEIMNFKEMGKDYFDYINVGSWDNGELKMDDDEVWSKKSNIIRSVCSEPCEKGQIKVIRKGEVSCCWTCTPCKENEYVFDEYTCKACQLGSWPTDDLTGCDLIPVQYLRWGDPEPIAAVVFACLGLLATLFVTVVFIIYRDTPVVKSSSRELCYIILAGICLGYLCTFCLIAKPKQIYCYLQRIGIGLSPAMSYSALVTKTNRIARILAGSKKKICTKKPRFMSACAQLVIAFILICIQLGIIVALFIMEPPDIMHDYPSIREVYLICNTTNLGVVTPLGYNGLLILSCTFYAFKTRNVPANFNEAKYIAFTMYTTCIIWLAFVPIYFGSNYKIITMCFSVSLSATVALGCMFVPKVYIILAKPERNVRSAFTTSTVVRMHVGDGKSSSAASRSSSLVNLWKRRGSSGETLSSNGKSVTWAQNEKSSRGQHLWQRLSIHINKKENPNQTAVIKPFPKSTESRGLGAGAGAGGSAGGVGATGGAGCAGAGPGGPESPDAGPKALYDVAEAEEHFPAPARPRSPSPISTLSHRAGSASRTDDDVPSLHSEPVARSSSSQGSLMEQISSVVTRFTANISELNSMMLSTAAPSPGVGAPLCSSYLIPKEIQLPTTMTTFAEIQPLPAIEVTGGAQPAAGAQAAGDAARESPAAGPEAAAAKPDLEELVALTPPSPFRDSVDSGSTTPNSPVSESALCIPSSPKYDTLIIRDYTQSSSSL

| Compound | solubility [1] [µg/mL] | microsomal CLint at 1 μM [2] [µL/min/mg] | microsomal CLint at 1 μM [3] [µL/min/mg] | CL (human) [4] [µL/min/mg] | CL (rat) [5] [µL/min/mg] | IC50 [6] [nM] |
| --- | --- | --- | --- | --- | --- | --- |
| COC(=O)N1CC[C@@H]2[C@H]1CCC[C@]2(C#Cc1cccc(C)c1)OC(=O)[C@@H](N)c1ccccc1 [Example 41, (3aR,4S,7aR)-methyl 4-((S)-2-amino-2-phenylacetoxy)-4-(m-tolylethynyl)octahydro-1H-indole-1-carboxylate] | 3 (≈ 6.72 µM) | 693 | 579 | – | – | – |
| (3aR,4S,7aR)-4-((S,R)-2-Amino-3-methyl-butyryloxy)-4-m-tolylethynyl-octahydro-indole-1-carboxylic acid methyl ester [Example 4] | – | – | – | 630 | 478 | – |
| CCOC(=O)N1CC[C@@H]2[C@H]1CCC[C@@]2(O)C#Cc1cccc(C)c1 [Example 2.0] | – | – | – | – | – | 42 |
| CCCCCCCCCCCCCC(=O)O[C@@]1(C#Cc2cccc(C)c2)CCC[C@@H]2[C@H]1CCN2C(=O)OC [Example 16, (3aR,4S,7aR)-4-Tetradecanoyloxy-4-m-tolylethynyl-octahydro-indole-1-carboxylic acid methyl ester] | < 2 | 33 | 26 | – | – | – |

Results, then the compound that gave them:

| solubility [1] [µg/mL] | microsomal CLint at 1 μM [2] [µL/min/mg] | microsomal CLint at 1 μM [3] [µL/min/mg] | CL (human) [4] [µL/min/mg] | CL (rat) [5] [µL/min/mg] | IC50 [6] [nM] | Compound |
| --- | --- | --- | --- | --- | --- | --- |
| 108 (≈ 238 µM) | 94 | 533 | – | – | – | COC(=O)N1CC[C@@H]2[C@H]1CCC[C@]2(C#Cc1cccc(C)c1)OC(=O)CCN1CCOCC1 [Example 27, (3aR,4S,7aR)-4-(3-Morpholin-4-yl-propionyloxy)-4-m-tolylethynyl-octahydro-indole-1-carboxylic acid methyl ester] |
| 439 (≈ 1000 µM) | 660 | 730 | – | – | – | COC(=O)N1CC[C@@H]2[C@H]1CCC[C@]2(C#Cc1cccc(C)c1)OC(=O)CCN1CCCC1 [Example 29, (3aR,4S,7aR)-4-(3-Pyrrolidin-1-yl-propionyloxy)-4-m-tolylethynyl-octahydro-indole-1-carboxylic acid methyl ester] |
